Assay [1] has as its system HCV. The assay can be described thus: HCV RNA in supernatant of eGFP-Jc1 transfected Huh7.5 cells (qRT-PCR). The format is cell-based, Hepatitis C virus. The settings on record: 10 μM, Day 3. The procedure: Day 0: Huh7.5 cells were transfected with an eGFP-Jc1 reporter construct RNA via electroporation (10 μg RNA per 4×10^6 cells). The eGFP-Jc1 reporter construct is a modified version of the Jc1 (J6/C3 chimera) described by Pietschmann et al. (2006) PNAS 103(19): 7408-7413, in which an eGFP (enhanced green fluorescent protein)-IRES (internal ribosomal entry site) cassette has been inserted between the 5′UTR and the open reading frame of the Jc1 construct.
(§1) Transfected cells were then plated at 2×10^6 cells per T75 flask.
(§2) Day 1: The cells were washed 3 times and treated with 10 μl dimethylsulfoxide (DMSO) (control), 10 μM ERK Inhibitor II (FR180204Calbiochem) or 10 μM U0126 (Promega).
(§3) Day 3: The transfected Huh7.5 cells and the supernatant were harvested. The harvested cells and the supernatant were analyzed by quantitative reverse transcription-polymerase chain reaction (qRT-PCR) for levels of HCV RNA
(§4) Viral RNA in culture supernatants was isolated using RNA STAT-50 LS REAGENT (Tel Test). total cellular RNA or 10 μl of RNA of culture supernatant was used for cDNA synthesis using SuperScript III reverse transcriptase (Invitrogen) and random hexamer primers. Viral RNA levels were measured by quantitative real-time PCR using Taqman probes and corresponding primers.
A general note: Real-time PCR tracks product formation cycle by cycle.

The subject of assay [2] is HCV. Kind of assay: Intracellular HCV RNA in eGFP-Jc1 transfected Huh7.5 cells (qRT-PCR). The format is cell-based, Hepatitis C virus. To be noted: 10 μM, Day 3. The procedure: The eGFP-Jc1 reporter construct is a modified version of the Jc1 (J6/C3 chimera) described by Pietschmann et al. (2006) PNAS 103(19): 7408-7413, in which an eGFP (enhanced green fluorescent protein)-IRES (internal ribosomal entry site) cassette has been inserted between the 5′UTR and the open reading frame of the Jc1 construct.
as §1, §2, §3
Total RNA was extracted from transfected cells using RNA STAT-60 REAGENT (Tel Test).
as §4

The target of assay [3] is ERK-2 (Homo sapiens, UniProt P28482). To be noted: cited from earlier work.
ERK-2, sequence (P28482 whole entry, species assumed): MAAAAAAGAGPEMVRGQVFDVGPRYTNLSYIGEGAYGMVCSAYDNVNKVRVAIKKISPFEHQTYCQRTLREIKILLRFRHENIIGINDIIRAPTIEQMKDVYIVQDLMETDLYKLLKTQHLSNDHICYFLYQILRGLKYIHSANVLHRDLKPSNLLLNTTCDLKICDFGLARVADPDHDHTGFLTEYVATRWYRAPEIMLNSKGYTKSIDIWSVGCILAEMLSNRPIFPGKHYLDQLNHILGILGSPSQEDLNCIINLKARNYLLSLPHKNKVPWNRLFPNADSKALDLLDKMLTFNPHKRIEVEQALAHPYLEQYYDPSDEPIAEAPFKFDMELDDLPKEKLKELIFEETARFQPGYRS
The target of assay [4] is MEK-1 (Homo sapiens, UniProt Q02750). To be noted: in vitro; cited from earlier work.
MEK-1, sequence (Q02750 whole entry, species assumed): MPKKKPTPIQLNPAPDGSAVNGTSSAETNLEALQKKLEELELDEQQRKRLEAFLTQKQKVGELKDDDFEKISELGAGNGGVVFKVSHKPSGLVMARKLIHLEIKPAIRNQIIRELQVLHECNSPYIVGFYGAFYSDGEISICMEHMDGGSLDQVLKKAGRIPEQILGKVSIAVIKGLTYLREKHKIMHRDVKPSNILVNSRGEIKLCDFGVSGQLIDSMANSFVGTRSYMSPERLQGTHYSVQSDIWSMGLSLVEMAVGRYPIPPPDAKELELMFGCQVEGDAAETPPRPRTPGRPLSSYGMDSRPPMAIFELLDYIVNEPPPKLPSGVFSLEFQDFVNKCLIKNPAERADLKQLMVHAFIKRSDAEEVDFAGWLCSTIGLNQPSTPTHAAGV
Assay [5] has as its system MEK 1/2. The settings on record: cited from earlier work.
Assay [6] has as its system Mek. The settings on record: cited from earlier work.
In assay [7] the test system is ERK. The settings on record: cited from earlier work.
Assay [8] deals with c-Src (Homo sapiens, UniProt P12931). To be noted: cited from earlier work.
c-Src, sequence (P12931 whole entry, species assumed): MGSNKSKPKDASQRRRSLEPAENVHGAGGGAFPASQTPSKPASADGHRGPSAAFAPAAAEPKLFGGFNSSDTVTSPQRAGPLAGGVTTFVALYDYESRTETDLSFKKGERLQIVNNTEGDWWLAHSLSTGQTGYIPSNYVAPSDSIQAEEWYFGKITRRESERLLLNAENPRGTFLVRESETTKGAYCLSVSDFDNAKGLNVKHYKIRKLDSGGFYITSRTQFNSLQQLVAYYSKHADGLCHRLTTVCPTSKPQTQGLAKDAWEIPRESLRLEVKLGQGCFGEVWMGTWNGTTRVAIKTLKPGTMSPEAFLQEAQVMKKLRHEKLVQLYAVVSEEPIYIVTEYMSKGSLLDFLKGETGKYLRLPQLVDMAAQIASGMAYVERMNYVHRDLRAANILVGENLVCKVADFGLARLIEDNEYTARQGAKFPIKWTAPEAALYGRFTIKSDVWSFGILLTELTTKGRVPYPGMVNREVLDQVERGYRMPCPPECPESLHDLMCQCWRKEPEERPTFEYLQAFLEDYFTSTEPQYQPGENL
Assay [9] has as its system cdks. The settings on record: cited from earlier work.
For assay [10], the target named is PI 3-kinase γ (Homo sapiens, UniProt P48736). To be noted: cited from earlier work.
PI 3-kinase γ, sequence (P48736 whole entry): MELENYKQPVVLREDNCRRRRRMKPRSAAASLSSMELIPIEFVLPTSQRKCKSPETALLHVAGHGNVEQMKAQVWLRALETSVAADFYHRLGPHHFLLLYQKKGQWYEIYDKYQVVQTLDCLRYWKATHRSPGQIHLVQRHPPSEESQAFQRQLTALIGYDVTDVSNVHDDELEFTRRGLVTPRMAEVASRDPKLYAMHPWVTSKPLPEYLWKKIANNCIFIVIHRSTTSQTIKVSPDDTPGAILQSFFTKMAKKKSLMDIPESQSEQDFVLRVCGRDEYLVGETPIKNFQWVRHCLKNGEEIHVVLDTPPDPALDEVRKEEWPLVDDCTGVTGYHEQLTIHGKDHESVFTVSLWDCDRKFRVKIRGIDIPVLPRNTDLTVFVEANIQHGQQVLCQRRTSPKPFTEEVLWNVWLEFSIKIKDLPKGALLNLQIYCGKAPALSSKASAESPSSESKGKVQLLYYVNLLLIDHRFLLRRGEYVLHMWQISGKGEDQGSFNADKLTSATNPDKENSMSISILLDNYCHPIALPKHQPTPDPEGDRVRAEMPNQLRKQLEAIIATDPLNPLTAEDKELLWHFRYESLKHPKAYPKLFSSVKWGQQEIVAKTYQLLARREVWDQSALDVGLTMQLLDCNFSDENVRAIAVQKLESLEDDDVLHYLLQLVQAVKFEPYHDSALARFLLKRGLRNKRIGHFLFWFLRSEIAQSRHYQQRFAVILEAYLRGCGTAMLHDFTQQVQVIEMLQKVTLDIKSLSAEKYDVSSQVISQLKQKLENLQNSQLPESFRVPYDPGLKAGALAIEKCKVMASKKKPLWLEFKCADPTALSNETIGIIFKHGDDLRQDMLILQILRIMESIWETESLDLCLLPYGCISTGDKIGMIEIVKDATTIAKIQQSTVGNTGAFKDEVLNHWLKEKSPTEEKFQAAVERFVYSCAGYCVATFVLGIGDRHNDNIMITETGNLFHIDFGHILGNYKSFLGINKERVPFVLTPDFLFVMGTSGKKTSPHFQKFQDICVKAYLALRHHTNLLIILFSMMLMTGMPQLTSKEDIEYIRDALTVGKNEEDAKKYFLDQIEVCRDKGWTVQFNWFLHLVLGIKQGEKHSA
The test system of assay [11] is HCV. To be noted: 10 μM, 1 h pretreatment, anti-CD81 single-round infection. On the procedure:
Virus: Transfection of Huh7.5 cells with eGFP-Jc1 reporter construct RNA via electroporation (10 μg RNA per 4×10^6 cells)
Harvest virus in the supernatant (Filter & Concentrate using Amicon MWCO 100): conc 10 ml to 200 μl after 3 days
Day 0: Plate Huh7.5 at 1×10^4 cells per well […] (24 well plate)
Day 1: Pretreat cells with 10 μl DMSO or 10 μM U0126 for 1 h
Infection with 50 μl conc. virus per well for 3 h at 37° C.
Addition of 10 μg/ml anti-CD81 antibody (α-CD81) for single-round infection
Day 4: Harvest infected cells for FACS analysis.

These results are taken from patent US20110110891A1, “Methods of Treating Hepatitis C Virus Infection” (priority 2008, published 2011).

Each structure is given as a SMILES string. Some results are limits rather than exact numbers.

In the case of `Nc1n[nH]c2nnc(-c3c(-c4ccccc4)nn4ccccc34)cc12` [FR180204, 5-(2-phenylpyrazolo[1,5-a]pyridin-3-yl)-1H-pyrazolo[3,4-c]pyridazin-3-amine], the “decrease in number of HCV copies per ml supernatant compared with control treated cells” value in assay [1] is given as roughly 50%. Besides, in [2], the “level of intracellular HCV RNA per μg total RNA” value is “increased”.

The term IC50 denotes the point on the concentration scale where inhibition reaches its midpoint. For `Cc1cc(O)c2c(=O)c3c(O)cc(O)c4c5c(O)cc(O)c6c(=O)c7c(O)cc(C)c8c1c2c(c34)c(c78)c65` [Hypericin], the IC50 in [3] is 4 nM.

On to `COc1cc(O)c2c(c1)/C=C/C[C@]1(O)C(C=CC(=O)[C@H]1O)[C@H](C)OC2=O` (stereo partly drawn) [L-783,277], for which the IC50 in [4] was 4 nM.

For `Cc1cc(I)ccc1Nc1c(C(=O)NOCC2CC2)cc(F)c(F)c1F` [PD198306, N-(Cyclopropylmethoxy)-3,4,5-trifluoro-2-[(4-iodo-2-methylphenyl)amino]-benzamide], the “concentration inhibiting isolated enzyme” value in [5] is 8 nM. For the same molecule, the “concentrations inhibiting Mek activity in synovial fibroblasts” value in assay [6] was 30 to 100 nM. Also, the IC50 is greater than 1000 nM in [7], greater than 4000 nM in assay [8], greater than 4000 nM in assay [9] and greater than 10000 nM in assay [10].

In the case of `COc1cc(O)c2c(c1)/C=C/C[C@@]1(O)C(C=CC(=O)[C@H]1O)[C@H](C)OC2=O` (some centres unmarked) [Ro 09-2210], in [4], the IC50 was 60 nM.

For the molecule `N#CC(=C(/N)Sc1ccccc1N)/C(C#N)=C(\N)Sc1ccccc1N` [U0126, 1,4-Diamino-2,3-dicyano-1,4-bis(2-aminophenylthio)butadiene], the “HCV copies per ml supernatant relative to supernatant of control treated cells” value in assay [1] is reported as “one third”. The “level of intracellular HCV RNA per μg total RNA” value in assay [2] is “increased”. For the same molecule, in assay [11], the “viral entry detected by GFP expression” value is recorded as “HCV entered the cells”.
